Source: patent US11820766B2, “Monoacylglycerol lipase modulators” (Janssen Pharmaceutica NV, priority 2018, dated 2023)
Structures can show the parent of a compound that is named as a salt.

biological target: T1, human MGL from HeLa cells (Homo sapiens, UniProt Q99685); assay: In vitro MGL activity assay: [glycerol-1,3-3H]-oleyl glycerol cleavage by MGL from HeLa cells; format: biochemical; conditions: 300 nM [Glycerol-1,3-3H]-oleyl glycerol, one hour
T1 construct: combining endogenously expressed MGL from HeLa cells with test compounds; endogenous in cells; host or cells: HeLa cells / cell homogenates
T1 sequence (Q99685 1-303): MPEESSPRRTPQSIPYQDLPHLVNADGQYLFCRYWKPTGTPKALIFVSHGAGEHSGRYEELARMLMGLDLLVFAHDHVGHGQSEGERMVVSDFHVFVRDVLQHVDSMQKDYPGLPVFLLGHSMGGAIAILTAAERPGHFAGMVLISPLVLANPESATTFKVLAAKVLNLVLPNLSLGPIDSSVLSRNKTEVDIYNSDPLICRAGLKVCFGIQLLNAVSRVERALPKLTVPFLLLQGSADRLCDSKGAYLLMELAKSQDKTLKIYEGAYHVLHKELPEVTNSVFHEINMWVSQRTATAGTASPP
From the text: MGL is the predominant hydrolase in HeLa cells/cell homogenates.

IC50	Structure (SMILES)
277 nM	C[C@H]1c2nn(C)c(-c3cc(F)c(F)c(F)c3)c2CCN1C(=O)c1cncc2cn[nH]c12 [Example 434, [(7S)-2,7-Dimethyl-3-(3,4,5-trifluorophenyl)-5,7-dihydro-4H-pyrazolo[3,4-c]pyridin-6-yl]-(1H-pyrazolo[4,3-c]pyridin-7-yl)methanone]
32.1 nM	C[C@H]1c2nn(C)c(-c3cc(F)c(F)c(F)c3)c2CCN1C(=O)c1cnn(C)c1C1(F)CC1 [Example 335, [(7S)-2,7-Dimethyl-3-(3,4,5-trifluorophenyl)-5,7-dihydro-4H-pyrazolo[3,4-c]pyridin-6-yl]-[5-(1-fluorocyclopropyl)-1-methyl-pyrazol-4-yl]methanone]
280 nM	Cc1ccc2nc(C)c(C(=O)N3CCc4c(nn(C)c4-c4cc(F)c(F)c(F)c4)[C@@H]3C)n2c1 [Example 405, (2,6-Dimethylimidazo[1,2-a]pyridin-3-yl)-[(7S)-2,7-dimethyl-3-(3,4,5-trifluorophenyl)-5,7-dihydro-4H-pyrazolo[3,4-c]pyridin-6-yl]methanone]
22.4 nM	C[C@H]1c2nn(C)c(-c3cc(F)c(F)c(F)c3)c2CCN1C(=O)c1cnn(C2CC2)c1C(F)(F)F [Example 346, [1-Cyclopropyl-5-(trifluoromethyl)pyrazol-4-yl]-[(7S)-2,7-dimethyl-3-(3,4,5-trifluorophenyl)-5,7-dihydro-4H-pyrazolo[3,4-c]pyridin-6-yl]methanone]
10.7 nM	C[C@H]1c2nn(C)c(-c3cc(F)c(F)c(F)c3)c2CCN1C(=O)c1cnn2ccccc12 [Example 381, [(7S)-2,7-Dimethyl-3-(3,4,5-trifluorophenyl)-5,7-dihydro-4H-pyrazolo[3,4-c]pyridin-6-yl]-pyrazolo[1,5-a]pyridin-3-yl-methanone.TFA salt]
9.53 nM	CC1CC1c1c(C(=O)N2CCc3c(nn(C)c3-c3cc(F)c(F)c(F)c3)[C@@H]2C)cnn1C (stereo partly drawn) [Example 341, ((S)-2,7-Dimethyl-3-(3,4,5-trifluorophenyl)-2,4,5,7-tetrahydro-6H-pyrazolo[3,4-c]pyridin-6-yl)(1-methyl-cis-5-(2-methylcyclopropyl)-1H-pyrazol-4-yl)methanone]
2.17 nM	C[C@H]1c2nn(C)c(-c3cccc4c3OCO4)c2CCN1C(=O)c1ccc2ncccc2c1 [Example 541, [(7S)-3-(1,3-Benzodioxol-4-yl)-2,7-dimethyl-5,7-dihydro-4H-pyrazolo[3,4-c]pyridin-6-yl]-(6-quinolyl)methanone]
766 nM	C[C@H]1c2nn(C)c(-c3ccc(C(F)F)nc3)c2CCN1C(=O)c1ccc2ncccc2c1 [Example 521, [(7S)-3-[6-(Difluoromethyl)-3-pyridyl]-2,7-dimethyl-5,7-dihydro-4H-pyrazolo[3,4-c]pyridin-6-yl]-(6-quinolyl)methanone]
2790 nM	C[C@H]1c2nn(C)c(-c3cc(F)c(F)c(F)c3)c2CCN1C(=O)c1cnn(C)c1C1(C)CC1 [Example 334, [(7S)-2,7-Dimethyl-3-(3,4,5-trifluorophenyl)-5,7-dihydro-4H-pyrazolo[3,4-c]pyridin-6-yl]-[1-methyl-5-(1-methylcyclopropyl)pyrazol-4-yl]methanone]

same assay, conditions: 300 nM [Glycerol-1,3-3H]-oleyl glycerol, one hour incubation

IC50	Structure (SMILES)
89.9 nM	Cn1nc2c(c1-c1ccccc1)CCN(C(=O)c1cccc3ccoc13)C2 [Example 33, Benzofuran-7-yl(2-methyl-3-phenyl-2,4,5,7-tetrahydro-6H-pyrazolo[3,4-c]pyridin-6-yl)methanone]
55.3 nM	Cc1cc(F)cc(-c2c3c(nn2C)[C@H](C)N(C(=O)c2cnn(C)c2C)CC3)c1 [Example 327, (1,5-Dimethylpyrazol-4-yl)-[(7S)-3-(3-fluoro-5-methyl-phenyl)-2,7-dimethyl-5,7-dihydro-4H-pyrazolo[3,4-c]pyridin-6-yl]methanone]
136 nM	C[C@H]1c2nn(C)c(-c3cc(F)cc(C(F)(F)F)c3)c2CCN1C(=O)c1ccc2nccnc2c1 [Example 184, (S)-(3-(3-Fluoro-5-(trifluoromethyl)phenyl)-2,7-dimethyl-2,4,5,7-tetrahydro-6H-pyrazolo[3,4-c]pyridin-6-yl)(quinoxalin-6-yl)methanone]
47.3 nM	Cn1nc2c(c1-c1ccccc1)CCN(C(=O)c1nccc3ccccc13)C2 [Example 88, Isoquinolin-1-yl(2-methyl-3-phenyl-2,4,5,7-tetrahydro-6H-pyrazolo[3,4-c]pyridin-6-yl)methanone]
365 nM	COc1cc(C(=O)N2CCc3c(nn(C)c3-c3ccccc3)C2)cc(C(F)(F)F)c1 [Example 6, (3-Methoxy-5-(trifluoromethyl)phenyl)(2-methyl-3-phenyl-2,4,5,7-tetrahydro-6H-pyrazolo[3,4-c]pyridin-6-yl)methanone]
4.21 nM	C[C@H]1c2nn(C)c(-c3cc(F)cc(F)c3)c2CCN1C(=O)c1cc(F)cc(OCCF)c1 [Example 143, (S)-(3-(3,5-Difluorophenyl)-2,7-dimethyl-2,4,5,7-tetrahydro-6H-pyrazolo[3,4-c]pyridin-6-yl)(3-fluoro-5-(2-fluoroethoxy)phenyl)methanone]
52.8 nM	C[C@H]1c2nn(C)c(-c3cc(F)c(F)c(F)c3)c2CCN1C(=O)c1cccc(OC(F)(F)F)c1 [Example 262, [(7S)-2,7-Dimethyl-3-(3,4,5-trifluorophenyl)-5,7-dihydro-4H-pyrazolo[3,4-c]pyridin-6-yl]-[3-(trifluoromethoxy)phenyl]methanone]
781 nM	CCn1nc2c(c1-c1ccccc1)CCN(C(=O)c1ccc3ncccc3c1)C2 [Example 91, (2-Ethyl-3-phenyl-2,4,5,7-tetrahydro-6H-pyrazolo[3,4-c]pyridin-6-yl)(quinolin-6-yl)methanone]
3420 nM	Cn1nc2c(c1-c1ccccc1)CCN(C(=O)c1cccc(O)c1Cl)C2 [Example 12, (2-Chloro-3-hydroxyphenyl)(2-methyl-3-phenyl-2,4,5,7-tetrahydro-6H-pyrazolo[3,4-c]pyridin-6-yl)methanone]
17 nM	CC1c2nn(C(F)(F)F)c(-c3cc(F)cc(F)c3)c2CCN1C(=O)c1ccc2ncccc2c1 (stereo not shown) [Example 156, (3-(3,5-Difluorophenyl)-7-methyl-2-(trifluoromethyl)-2,4,5,7-tetrahydro-6H-pyrazolo[3,4-c]pyridin-6-yl)(quinolin-6-yl)methanone]
274 nM	C[C@H]1c2nn(C)c(-c3cccc(Cl)c3)c2CCN1C(=O)c1ccc2cc[nH]c2n1 [Example 130, (S)-(3-(3-Chlorophenyl)-2,7-dimethyl-2,4,5,7-tetrahydro-6H-pyrazolo[3,4-c]pyridin-6-yl)(1H-pyrrolo[2,3-b]pyridin-6-yl)methanone]
14.8 nM	C[C@H]1c2nn(C)c(-c3cc(F)c(F)c(F)c3)c2CCN1C(=O)c1cccc(-n2cncn2)c1 [Example 194, (S)-(3-(1H-1,2,4-Triazol-1-yl)phenyl)(2,7-dimethyl-3-(3,4,5-trifluorophenyl)-2,4,5,7-tetrahydro-6H-pyrazolo[3,4-c]pyridin-6-yl)methanone]
16.2 nM	C[C@H]1c2nn(C)c(-c3cc(F)c(F)c(F)c3)c2CCN1C(=O)c1cnc2c(ccn2C)c1 [Example 226, (S)-(2,7-Dimethyl-3-(3,4,5-trifluorophenyl)-2,4,5,7-tetrahydro-6H-pyrazolo[3,4-c]pyridin-6-yl)(1-methyl-1H-pyrrolo[2,3-b]pyridin-5-yl)methanone]
